Source: patent US11179363B2, “Non-steroidal selective glucocorticoid receptor agonistic modulators (SEGRAMs) and uses thereof” (ASSOCIATION POUR LA RECHERCHE À L'IGBMC (ARI), priority 2017, dated 2021)

Experiments:
[1] = test system: thymus, spleen, adrenal gland and kidney; assay: Organ weights (thymus, spleen, adrenal gland, kidney) after three-month treatment; type: in vivo, B6 male mice; conditions: s.c. 1 mg/kg daily, three months
Method: B6 male mice (8-week-old) were daily subjected for three months to a subcutaneous injection of either vehicle (NaCl 0.9%), Dex, CpdX, CpdX(eA), CpdX(eB), CpdX-D3, CpdX-D3(eA) or CpdX-D3(eB) (1 mg/kg body weight, diluted in vehicle). Following these treatments, four organs (thymus, spleen, adrenal gland and kidney) were harvested and weighted.

[2] = test system: DSS-induced Th17 ulcerative colitis; assay: Dextran sodium sulfate (DSS)-induced ulcerative colitis; type: in vivo, Balb/C mice; conditions: for pro-inflammatory genes overexpressed in DSS-induced ulcerative colitis (IL-1β, IL-6, IL-17a, IL-17f, TSLP, MMP13): colon, q-RT-PCR, D14; for colonic villus/crypt structure (histology) / mucosal and submucosal cell infiltration (histology): i.p. 1 mg/kg on D11, D12, D13, 3% DSS 13 days
Method: To investigate the anti-inflammatory activity of CpdX and CpdX-D3 on a Th17 ulcerative colitis, Balb/C mice were treated with 3% DSS in drinking water for 13 days, with or without an intraperitoneal administration of either Dex, CpdX, CpdX(eA), CpdX(eB), CpdX-D3, CpdX-D3(eA) or CpdX-D3(eB) (1 mg/kg of body weight) on D11, D12 and D13.
At D14, RNA transcripts were extracted from mouse colons. IL-1β, IL-6, IL-17a, IL-17f, TSLP and MMP13 transcripts were analyzed by q-RT-PCR. Colon samples were also harvested for histological analyses (with H&E staining).

[3] = test system: dorsal skin of Balb/C mice; assay: Skin epidermis atrophy after 8-day topical treatment of dorsal skin; type: in vivo; conditions: eight-day topical treatment
Text: To investigate whether, similarly to Dex, a topical administration of CpdX could result in a skin atrophy, Balb/C mice were shaved on the dorsal skin. Ethanol (vehicle), Dex, CpdX or either one of its two enantiomers CpdX(eA) or CpdX(eB), as well as the deuterated form CpdX-D3 or either one of its two enantiomers CpdX-D3(eA) or CpdX-D3(eB), were topically applied onto the dorsal skin for 8 days.
Upon completion of the treatments, RNA transcripts were extracted from dorsal skin samples and the transcripts of Kindlin-1 and REDD1 genes were analyzed by q-RT-PCR. Histological and morphometric analyses of the dorsal skin were also performed.

[4] = test system: OVA-induced allergic conjunctivitis; assay: Ovalbumin (OVA)-induced allergic conjunctivitis; type: in vivo, Balb/C mice; conditions: 0.1% instillation D22 to D24, 20 minutes after the last OVA challenge
Method: To investigate the anti-inflammatory effect of CpdX or CpdX-D3 on an allergic conjunctivitis, Balb/C mice were intraperitoneally sensitized with 50 μg OVA with alum on both days D1 and D8, and then challenged from D15 to D21 with 250 μg OVA in 5 μL of sterilized vehicle (0.9% NaCl), which were directly instilled onto the conjunctival sac. From D22 to D24, mice were divided into several groups, and received instillations with either OVA alone, OVA together with 0.1% of either Dex, CpdX, CpdX(eA), CpdX(eB), CpdX-D3, CpdX-D3(eA) or CpdX-D3(eB).
The clinical appearance of mouse eyes was evaluated 20 minutes after the last instillation on D24. Clinical signs (conjunctival hyperemia, lid edema and tearing) were scored to evaluate the occurrence and severity of conjunctivitis as described by Gimenes et al. (2015. Experimental Eye Research 134:24-32). Parameters were graded on a scale ranging from 0 to 3, (0=absence, 1=mild, 2=moderate, and 3=severe symptoms), each animal receiving a total clinical score ranging from 0 to 9. The data were expressed as mean±SEM with at least four mice per treatment.

[5] = Blood glucose and intraperitoneal glucose tolerance test (IPGTT) after three-month treatment; type: in vivo, B6 male mice; conditions: three months; glucose i.p. injection
Method: B6 male mice (8-week-old) were daily subjected for three months to a subcutaneous injection of either vehicle (NaCl 0.9%), Dex, CpdX, CpdX(eA), CpdX(eB), CpdX-D3, CpdX-D3(eA) or CpdX-D3(eB) (1 mg/kg body weight, diluted in vehicle). Mice were over-night-fasted. Mouse blood glucose concentration was measured before (To) and during two hours (T120) after glucose i.p. injection ([…]).

[6] = test system: collagen-induced Th17 rheumatoid arthritis-like inflammation; assay: Collagen-induced arthritis (CIA); type: in vivo, mice (DBA-1 strain); conditions: i.p. 1 mg/kg daily for 10 days (T0 to T10); 1 mg/kg
Method: Mice were treated with collagen to induce a Th17 rheumatoid arthritis-like inflammation as described by Inglis et al. (2007. Arthritis Res Ther. 9(5):R113) and Geboes et al. (2009. Arthritis Rheum. 60(2):390-5).
Male mice (DBA-1 strain) were subcutaneously-injected with 100 μg collagen per mouse on D0. The hind paw thickness at the ankle level was regularly measured with a caliper. When the ankle thickness had reached around 4 mm (T0, i.e., 30 to 50 days after the collagen injection on D0), mice were daily intraperitoneally-injected for 10 days (T0 to T10) with either vehicle (NaCl 0.9%), Dex, CpdX, CpdX(eA), CpdX(eB), CpdX-D3, CpdX-D3(eA) or CpdX-D3(eB) (1 mg/kg body weight diluted in NaCl 0.9%), and the hind paw thickness at the ankle level was daily measured with a caliper. Pictures of the hind paws were taken at days T0 and T10 (before and after the treatment with either Vehicle, Dex, CpdX, CpdX(eA), CpdX(eB), CpdX-D3, CpdX-D3(eA) or CpdX-D3(eB)), in order to assess the course of swelling.
RNA transcripts were extracted from whole hind paws of collagen-untreated and collagen-treated mice at T0 and T10. IL-1β, IL-6, IL-17a, IL-17f and TNFα transcripts were analyzed by q-RT-PCR.

[7] = test system: adrenal glands; assay: Corticosterone synthesis and adrenal gland after three-month treatment; type: in vivo, B6 male mice; conditions: three months; for cortex layers, most notably the fasciculata zone, of the adrenal glands (histology) / transcripts of Cyp11a, Cyp11b1 and HSD3β genes in adrenal glands (corticosterone synthesis pathway): s.c. 1 mg/kg daily; for transcripts of Cyp11a, Cyp11b1 and HSD3β genes in adrenal glands (corticosterone synthesis pathway): q-RT-PCR; for plasmatic corticosterone level at 10 a.m.: vs Vehicle
Method: B6 male mice (8-week-old) were daily subjected for three months to either a subcutaneous injection of vehicle (NaCl 0.9%), Dex, CpdX, CpdX(eA), CpdX(eB), CpdX-D3, CpdX-D3(eA) or CpdX-D3(eB) (1 mg/kg body weight, diluted in vehicle).
Following this long-term treatment, blood was collected at 10 a.m. and 6 p.m. by retro-orbital puncture in lithium-heparin coated vials, and the plasmatic level of corticosterone was determined. Adrenal glands were harvested and weighted. RNA transcripts were extracted and transcripts of the Cyp11a, Cyp11b1, Cyp11b2 and HSD3β genes were analyzed by q-RT-PCR. Histological analyses of the adrenal glands were also carried out.

SMILES | thymus apoptosis (thymus weight) [1] | pro-inflammatory genes overexpressed in DSS-induced ulcerative colitis (IL-1β, IL-6, IL-17a, IL-17f, TSLP, MMP13) [2] | colonic villus/crypt structure (histology) [2] | mucosal and submucosal cell infiltration (histology) [2] | epidermal thickness (morphometric analyses) [3] | clinical signs of allergic conjunctivitis (conjunctival hyperemia, lid edema and tearing) [4] | blood glucose level during two-hour IPGTT [5] | hind paw thickness at the ankle level [6] | cortex layers, most notably the fasciculata zone, of the adrenal glands (histology) [7] | transcripts of Cyp11a, Cyp11b1 and HSD3β genes in adrenal glands (corticosterone synthesis pathway) [7] | plasmatic corticosterone level at 10 a.m. [7]
[2H]C([2H])([2H])Oc1ccc(F)cc1C(C)(C)CC(O)(CNc1ccc2c(c1)COC2=O)C(F)(F)F (single isomer, unassigned; enantiomer b) [CpdX-D3(eB), 5-{4-[2-(methoxy-D3)-5-fluorophenyl]-2-hydroxy-4-methyl-2-(trifluoromethyl)pentylamino}isobenzofuran-1(3H)-one enantiomer B] | did not result in any significant thymus apoptosis | similarly repressed | almost reestablished | significantly decreased | not significantly decreased | considerably reduced | no significant difference | no such decrease | markedly increased | increased | much higher
COc1ccc(F)cc1C(C)(C)CC(O)(CNc1ccc2c(c1)COC2=O)C(F)(F)F (single isomer, unassigned; enantiomer b) [CpdX(eB), 5-[4-(5-fluoro-2-methoxyphenyl)-2-hydroxy-4-methyl-2-(trifluoromethyl)-pentylamino]isobenzofuran-1(3H)-one enantiomer B] | did not result in any significant thymus apoptosis | similarly repressed | almost reestablished | significantly decreased | not significantly decreased | considerably reduced | no significant difference | no such decrease | markedly increased | increased | much higher
